By IC50 is commonly meant the point on the concentration scale where inhibition reaches its midpoint.

The structures appear in SMILES notation.

Here are results for 1 molecule from doi:10.1101/706168v1 (biorxiv, 2019).

One test addresses T1, EAG1 (Homo sapiens, UniProt O95259).
T1 sequence (O95259 1-989): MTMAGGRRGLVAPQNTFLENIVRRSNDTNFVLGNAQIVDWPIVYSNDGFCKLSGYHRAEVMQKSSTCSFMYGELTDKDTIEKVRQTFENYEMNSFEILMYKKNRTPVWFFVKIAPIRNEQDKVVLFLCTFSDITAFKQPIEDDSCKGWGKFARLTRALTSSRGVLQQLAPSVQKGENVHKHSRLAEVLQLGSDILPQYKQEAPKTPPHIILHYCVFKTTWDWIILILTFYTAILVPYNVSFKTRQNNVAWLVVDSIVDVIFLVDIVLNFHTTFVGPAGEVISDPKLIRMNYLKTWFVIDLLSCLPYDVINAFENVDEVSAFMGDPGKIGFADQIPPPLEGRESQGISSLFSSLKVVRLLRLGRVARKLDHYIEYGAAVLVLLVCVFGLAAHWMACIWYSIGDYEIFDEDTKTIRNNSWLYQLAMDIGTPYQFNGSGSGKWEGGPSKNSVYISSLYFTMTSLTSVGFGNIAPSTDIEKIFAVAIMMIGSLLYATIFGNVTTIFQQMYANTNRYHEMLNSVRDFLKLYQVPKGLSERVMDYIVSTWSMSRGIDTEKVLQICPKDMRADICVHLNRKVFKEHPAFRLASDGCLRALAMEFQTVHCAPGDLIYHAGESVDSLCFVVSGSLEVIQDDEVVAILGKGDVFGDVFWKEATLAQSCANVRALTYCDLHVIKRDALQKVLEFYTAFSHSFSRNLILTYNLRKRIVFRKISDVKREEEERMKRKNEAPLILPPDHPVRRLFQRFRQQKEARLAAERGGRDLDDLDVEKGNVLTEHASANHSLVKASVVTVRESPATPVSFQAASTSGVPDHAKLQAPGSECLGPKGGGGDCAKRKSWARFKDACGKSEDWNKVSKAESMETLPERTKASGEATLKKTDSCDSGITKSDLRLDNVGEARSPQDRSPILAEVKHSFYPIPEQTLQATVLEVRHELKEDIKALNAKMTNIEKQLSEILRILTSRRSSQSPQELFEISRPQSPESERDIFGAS
The test can be described thus: cell-based.

For another test, the target named is T2, TRPC6 (Homo sapiens, UniProt Q9Y210).
T2 sequence (Q9Y210 1-931): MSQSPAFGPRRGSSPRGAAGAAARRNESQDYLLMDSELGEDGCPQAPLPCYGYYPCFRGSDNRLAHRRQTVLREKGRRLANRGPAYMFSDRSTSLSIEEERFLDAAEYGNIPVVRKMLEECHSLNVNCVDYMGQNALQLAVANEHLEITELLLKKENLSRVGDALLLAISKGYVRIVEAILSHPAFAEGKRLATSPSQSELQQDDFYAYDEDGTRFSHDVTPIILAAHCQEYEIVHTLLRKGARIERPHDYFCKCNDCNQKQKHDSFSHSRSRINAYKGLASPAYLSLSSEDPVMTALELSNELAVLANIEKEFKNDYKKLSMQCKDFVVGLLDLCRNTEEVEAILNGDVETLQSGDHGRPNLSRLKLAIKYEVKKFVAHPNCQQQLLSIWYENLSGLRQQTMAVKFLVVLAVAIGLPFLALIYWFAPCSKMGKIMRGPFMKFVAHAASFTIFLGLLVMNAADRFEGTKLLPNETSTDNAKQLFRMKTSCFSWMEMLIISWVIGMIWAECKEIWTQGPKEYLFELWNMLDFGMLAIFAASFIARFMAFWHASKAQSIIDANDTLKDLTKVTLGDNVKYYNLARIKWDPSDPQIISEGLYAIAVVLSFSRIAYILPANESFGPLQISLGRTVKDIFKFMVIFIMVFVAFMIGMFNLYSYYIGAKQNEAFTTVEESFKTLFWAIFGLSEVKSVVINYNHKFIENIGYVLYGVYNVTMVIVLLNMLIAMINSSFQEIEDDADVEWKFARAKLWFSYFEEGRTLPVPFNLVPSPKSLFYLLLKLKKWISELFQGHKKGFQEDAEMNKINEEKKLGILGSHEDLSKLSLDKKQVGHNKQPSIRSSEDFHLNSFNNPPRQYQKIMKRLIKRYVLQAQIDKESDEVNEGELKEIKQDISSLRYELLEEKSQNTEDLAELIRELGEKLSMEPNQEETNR
Nature of the test: cell-based.

Take `O=C(c1ccccc1F)N1CCN(Cc2c(-c3ccc(Br)cc3)nc3ccccn23)CC1` [BAY 1000493, (4-{[2-(4-bromophenyl)imidazo[1,2-a]pyridin-3-yl]methyl}vpiperazin-1-yl)(2-fluorophenyl)methanone]: the IC50 against EAG1 and against TRPC6 was above 30 µM in each case.
